Data from paper PMC7542364 (mBio, 2020).

Key:
[1] = target: HemATN (HemAT sensing domain, residues 1 to 178) (Bacillus subtilis, UniProt O07621); details: 50 uM protein, 3 mM ethanol, modified PBS pH 8.0, 10% D2O, 298 K; heme not involved (UV spectra)
[2] = target: McpBC (McpB cytoplasmic region, residues 305 to 662) (Bacillus subtilis, UniProt P39215); details: 50 uM protein, 3 mM ethanol, PBS in D2O pH 7.4, 298 K
Chain of McpBC (McpB cytoplasmic region, residues 305 to 662) (P39215 305-662): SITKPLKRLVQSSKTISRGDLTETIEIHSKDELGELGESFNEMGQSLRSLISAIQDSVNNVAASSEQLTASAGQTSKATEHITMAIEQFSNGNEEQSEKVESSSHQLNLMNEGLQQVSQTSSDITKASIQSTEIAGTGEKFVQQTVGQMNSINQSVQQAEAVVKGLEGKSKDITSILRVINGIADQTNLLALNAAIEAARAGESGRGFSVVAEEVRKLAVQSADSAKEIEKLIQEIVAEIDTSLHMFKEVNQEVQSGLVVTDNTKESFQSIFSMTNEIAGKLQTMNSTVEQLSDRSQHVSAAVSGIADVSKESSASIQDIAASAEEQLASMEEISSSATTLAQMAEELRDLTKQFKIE

Chain of HemATN (HemAT sensing domain, residues 1 to 178) (O07621 1-178): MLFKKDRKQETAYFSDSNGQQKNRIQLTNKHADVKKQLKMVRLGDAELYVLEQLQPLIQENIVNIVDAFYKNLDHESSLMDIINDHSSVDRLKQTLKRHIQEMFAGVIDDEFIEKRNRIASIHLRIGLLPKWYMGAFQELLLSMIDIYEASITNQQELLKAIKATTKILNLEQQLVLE

CCO [ethanol]
STD/1H area ratio, -CH3 (-CH2 0.85) [1]: 0.27
saturation fraction (STD/1H area ratio, -CH3) [2]: 0.23
